Test results published in patent publication US20050159599A1, “Cyclic compound, process for producing the same, and pest control agent” (priority 2002, published 2005).

Assays:
Type in all cases: in vivo
Plutella xylostella = experiment: Insecticidal effect for Plutella xylostella by immersion treatment of host crop (Test Example 1); settings: cabbage leaf dipped, second-instar larvae of Plutella xylostella, fifth day after; for rate of dead pests (%): 100 ppm; for pest or weed control at 100 ppm: foliar, 120 h, read-out: rate of dead pests (%)
Experimental: Insecticidal Effect for Plutella xylostella by Immersion Treatment of Host Crop One true leaf of 7 to 8-leave stage cabbage was cut off and dipped in a pesticidal solution for a few seconds, which was prepared by dissolving 5 mg of test compound (represented by the compound Nos. in the above Examples) in 0.5 ml of acetone containing Tween 20 (trade name) and then diluting it to the prescribed concentration (100 ppm) with Dain (trade name, sticker) water diluted 5000-fold. After drying the pesticidal solution, the leaf was put into an ice cream cup (180 ml), and ten second-instar larvae of Plutella xylostella were set free therein. The cup was left in a temperature-controlled breeding room (24° C.). On the fifth day after, the number of surviving Plutella xylostella was examined. The rate of dead pests was calculated by the following formula. rate of dead pests (%)=(number of dead pests/number of test pests)×100

Spodoptera litura [1] = experiment: Insecticidal effect for Spodoptera litura by spraying treatment to host crop (Test Example 2); settings: 100 ppm, sprayed on soybean, third-instar larvae of Spodoptera litura, fifth day after; for pest or weed control at 100 ppm: 120 h, read-out: rate of dead pests (%)
Experimental: Insecticidal Effect for Spodoptera litura by Spraying Treatment to Host Crop
A pesticidal solution, which was prepared by dissolving 5 mg of test compound (represented by the compound Nos. in the above Examples) in 0.5-ml of acetone containing Tween 20 (trade name) and then diluting it to the prescribed concentration (100 ppm) with Dain (trade name, sticker) water diluted 5000-fold, was sprayed on a soybean whose primary leaves had developed completely with spray gun in the amounts wherein the pesticidal solution dripped. After drying the pesticidal solution, two primary leaves were cut off. The leaves were put into an ice cream cup (180 ml), and ten third-instar larvae of Spodoptera litura were set free therein. The cup was left in a temperature-controlled breeding room (25° C.). On the fifth day after, the number of surviving Spodoptera litura was examined. The rate of dead pests was calculated by the following formula. rate of dead pests (%)=(number of dead pests/number of test pests)×100

Spodoptera litura [2] = experiment: Insecticidal effect for Spodoptera litura by immersion treatment of host crop root (Test Example 4); settings: 25 ppm, soybean root immersion 5 days, second-instar larvae of Spodoptera litura, fifth day after; for pest or weed control at 25 ppm: 120 h, read-out: rate of dead pests (%)
Experimental: Insecticidal Effect for Spodoptera litura by Immersion Treatment of Host Crop Root Roots of primary leaves developing stage soybean was washed with tap water to remove soil, and then immersed in a pesticidal solution which was prepared by dissolving 5 mg of test compound (represented by the compound Nos. in the above Examples) in 0.5 ml of acetone containing Tween 20 ([…]) with ion-exchange water, and which was filled in a light-shielded Erlenmeyer flask (100 ml). On the fifth day after immersion of root, two primary leaves were cut off, and the leaves were put into an ice cream cup (180 ml). Ten second-instar larvae of Spodoptera litura were set free therein, and the cup was left in a temperature-controlled breeding room (25° C.). On the fifth day after, the number of surviving Spodoptera litura was examined. The rate of dead pests was calculated by the following formula. rate of dead pests (%)=(number of dead pests/number of test pests)×100

Row | Structure (SMILES) | rate of dead pests (%) (Plutella xylostella) | rate of dead pests (%) (Spodoptera litura [1]) | rate of dead pests (%) (Spodoptera litura [2]) | further results
1 | O=C(c1c(F)cccc1F)N1COCN(c2ccc(SC(F)(F)C(F)F)cc2F)C1=O [I-22] | 100 | 100 |  | 
2 | O=C(c1c(F)cccc1F)N1COCN(c2c(F)cc(SC(F)(F)F)cc2F)C1=O [I-104] |  | 100 | 100 | 
3 | O=C(c1c(F)cccc1F)N1COCN(c2ccc([S+]([O-])C(F)(F)F)c(F)c2F)C1=O (centres unmarked) [I-108] | 100 |  |  | 
4 | O=C(c1c(F)cccc1F)N1COCN(c2c(F)cc(SC(F)(F)F)c(F)c2F)C1=O [I-116] | 100 | 100 |  | 
5 | Cc1c(N2COCN(C(=O)c3c(F)cccc3F)C2=O)ccc(SC(F)(F)F)c1Cl [I-122] |  | 100 | 95 | 
6 | O=C(c1c(F)cccc1F)N1COCN(c2ccc(SC(F)(F)C(F)(F)F)cc2F)C1=O [I-128, 3-(2,6-difluorobenzoyl)-5-[2-fluoro-4-(1,1,2,2,2-pentafluoroethylthio)phenyl]tetrahydro-4H-1,3,5-oxadiazin-4-one] |  |  |  | pest or weed control at 25 ppm (Spodoptera litura [2]): 100%; pest or weed control at 100 ppm (Spodoptera litura [1]): 100%
7 | O=C(c1c(F)cccc1Cl)N1COCN(c2ccc([S+]([O-])C(F)F)cc2F)C1=O (centres unmarked) [I-219] |  | 100 | 100 | 
8 | O=C(c1c(F)cccc1Cl)N1COCN(c2ccc([S+]([O-])C(F)(F)F)cc2Cl)C1=O (centres unmarked) [I-252] |  | 100 | 100 | 
9 | O=C(c1c(F)cccc1Cl)N1COCN(c2ccc([S+]([O-])C(F)(F)F)c(Cl)c2)C1=O (centres unmarked) [I-255] |  | 100 | 100 | 
10 | O=C(c1c(F)cccc1Cl)N1COCN(c2cc(Cl)c(SC(F)(F)F)cc2F)C1=O [I-275] |  | 100 | 100 | 
11 | O=C(c1c(F)cccc1Cl)N1COCN(c2c(F)cc(SC(F)(F)F)cc2Cl)C1=O [I-278] |  | 100 | 90 | 
12 | O=C(c1c(F)cccc1Cl)N1COCN(c2c(F)cc(SC(F)(F)F)cc2F)C1=O [I-281] |  | 100 | 100 | 
13 | O=C(c1c(F)cccc1Cl)N1COCN(c2cc(F)c([S+]([O-])C(F)(F)F)cc2F)C1=O (centres unmarked) [I-288] |  | 100 | 100 | 
14 | O=C(c1c(F)cccc1Cl)N1COCN(c2ccc([S+]([O-])C(F)(F)C(F)(F)F)cc2F)C1=O (centres unmarked) [I-306] |  | 100 | 100 | 
15 | O=C(c1c(F)cccc1Cl)N1COCN(c2ccc(S(=O)(=O)C(F)(F)C(F)(F)F)cc2F)C1=O [I-307] |  | 100 | 90 | 
16 | O=C(c1c(Cl)cccc1Cl)N1COCN(c2ccc(SC(F)(F)F)cc2F)C1=O [I-398] | 100 | 100 |  | 
17 | O=C(c1c(Cl)cccc1Cl)N1COCN(c2ccc([S+]([O-])C(F)(F)F)cc2F)C1=O (centres unmarked) [I-399] |  | 100 | 100 | 
18 | O=C(c1c(F)cccc1F)N1C[S+]([O-])CN(c2cc(Cl)c(F)c(Cl)c2F)C1=O (centres unmarked) [II-11] |  | 100 | 100 | 
19 | O=C(c1c(F)cccc1F)N1CSCN(c2ccc(SC(F)(F)C(F)Cl)cc2F)C1=O (centres unmarked) [II-19] | 100 |  |  | 

Row | Structure (SMILES) | rate of dead pests (%) (Plutella xylostella) | rate of dead pests (%) (Spodoptera litura [1]) | rate of dead pests (%) (Spodoptera litura [2]) | further results
20 | O=C(c1c(F)cccc1F)N1CSCN(c2ccc([S+]([O-])C(F)(F)C(F)Cl)cc2F)C1=O (centres unmarked) [II-22] | 100 |  |  | 
21 | O=C(c1c(F)cccc1F)N1CN(c2ccccc2)CN(c2ccc(Cl)cc2)C1=O [III-2, 1-(4-chlorophenyl)-3-(2,6-difluorobenzoyl)-5-phenyltetrahydro-1,3,5-triazin-2(1H)-one] |  |  |  | pest or weed control at 25 ppm (Spodoptera litura [2]): 90%; pest or weed control at 100 ppm (Spodoptera litura [1]): 100%
22 | C#CCN1CN(C(=O)c2c(F)cccc2F)C(=O)N(c2ccc(Cl)cc2)C1 [III-8] |  | 100 | 100 | 
23 | CS(=O)(=O)N1CN(C(=O)c2c(F)cccc2F)C(=O)N(c2ccc(Cl)cc2)C1 [III-12, 1-(4-chlorophenyl)-3-(2,6-difluorobenzoyl)-5-methanesulfonyltetrahydro-1,3,5-triazin-2(1H)-one] |  |  |  | pest or weed control at 25 ppm (Spodoptera litura [2]): 100%; pest or weed control at 100 ppm (Spodoptera litura [1]): 100%
24 | COC(=O)N1CN(C(=O)c2c(F)cccc2F)C(=O)N(c2ccc(Cl)cc2)C1 [III-13] |  | 100 | 100 | 
25 | C#CCN1CN(C(=O)c2c(F)cccc2F)C(=O)N(c2ccc(Oc3ccc(C(F)(F)F)cc3Cl)cc2F)C1 [III-23] | 100 | 100 |  | 
26 | CS(=O)(=O)N1CN(C(=O)c2c(F)cccc2F)C(=O)N(c2ccc(Oc3ccc(C(F)(F)F)cc3Cl)cc2F)C1 [III-26] | 100 | 100 |  | 
27 | COC(=O)N1CN(C(=O)c2c(F)cccc2F)C(=O)N(c2ccc(Oc3ccc(C(F)(F)F)cc3Cl)cc2F)C1 [III-28] | 100 | 100 |  | 
28 | CN(C)C(=O)C(=O)N1CN(C(=O)c2c(F)cccc2F)C(=O)N(c2ccc(Oc3ccc(C(F)(F)F)cc3Cl)cc2F)C1 [III-43, 2-[3-[4-(2-chloro-4-trifluoromethylphenoxy)-2-fluorophenyl]-5-(2,6-difluorobenzoyl)hexahydro-4-oxo-1,3,5-triazin-1-yl]-N,N-dimethyl-2-oxoacetamide] |  |  |  | pest or weed control at 100 ppm (Plutella xylostella): 100%; pest or weed control at 100 ppm (Spodoptera litura [1]): 100%
29 | O=C(NOCc1ccccc1)C(=O)N1CN(C(=O)c2c(F)cccc2F)C(=O)N(c2ccc(Oc3ccc(C(F)(F)F)cc3Cl)cc2F)C1 [III-50] | 100 | 100 |  | 
30 | O=C(c1c(F)cccc1F)N1CN(c2ccccc2)CN(c2cc(Cl)c(F)c(Cl)c2F)C1=O [III-54] | 100 | 100 |  | 
31 | O=C(OCc1ccccc1)N1CN(C(=O)c2c(F)cccc2F)C(=O)N(c2cc(Cl)c(F)c(Cl)c2F)C1 [III-55, 5-benzyloxycarbonyl-1-(3,5-dichloro-2,4-difluorophenyl)-3-(2,6-difluorobenzoyl)tetrahydro-1,3,5-triazin-2(1H)-one] |  |  |  | pest or weed control at 100 ppm (Plutella xylostella): 100%; pest or weed control at 100 ppm (Spodoptera litura [1]): 100%
32 | C=CCN1CN(C(=O)c2c(F)cccc2F)C(=O)N(c2cc(Cl)c(F)c(Cl)c2F)C1 [III-56] | 100 | 100 |  | 
33 | C#CCN1CN(C(=O)c2c(F)cccc2F)C(=O)N(c2cc(Cl)c(F)c(Cl)c2F)C1 [III-57] | 100 | 100 |  | 
34 | O=C(c1c(F)cccc1F)N1CN(Cc2ccccc2)CN(c2cc(Cl)c(F)c(Cl)c2F)C1=O [III-60] | 100 | 100 |  | 
35 | COC(=O)SN1CN(C(=O)c2c(F)cccc2F)C(=O)N(c2cc(Cl)c(F)c(Cl)c2F)C1 [III-62] | 100 | 100 |  | 
36 | Cc1ccc(S(=O)(=O)N2CN(C(=O)c3c(F)cccc3F)C(=O)N(c3cc(Cl)c(F)c(Cl)c3F)C2)cc1 [III-63] | 100 | 100 |  | 
37 | O=C(c1c(F)cccc1F)N1CN=CN(c2ccc(Cl)cc2)C1=O [V-1] |  | 100 | 100 | 
